The target of one experiment is Aβ40 (Homo sapiens, UniProt P05067). Description: ThT Aβ aggregation assay (kinetic Thioflavin T fluorescence). Format: biochemical. The settings on record: 20 μM Aβ, DMSO control at 80 hr = 0% inhibition, number in parenthesis = compound ID 1027 in that experiment; for inhibition at 10 µM: compound 10 μM, read-out: % inhib Thioflavin T Aβ 40 10 μM; for inhibition at 5 µM: 80 h, compound 5 μm (so in the source), read-out: % inhib Thioflavin T Aβ 40 (5 μm); for % inhib Thioflavin T Aβ 40 (3 μm): compound 3 μm (so in the source). As for the experimental part:
Preparation of Aβ40 Stock Solutions
Aβ40 (1.0 mg) was pre-treated in a 1.5 mL microfuge tube with HFIP (1 mL) and sonicated for 20 min to disassemble any pre-formed Aβ aggregates. The HFIP was removed with a stream of argon and the Aβ dissolved in Tris base (5.8 mL, 20 mM, pH ˜10). The pH was adjusted to 7.4 with concentrated HCl (˜10 μL) and the solution filtered using a syringe filter (0.2 μm) before being used.
The kinetic ThT assay for Aβ aggregation is similar to that of Chalifour et al (Chalifour et al, 2003, J. Biol. Chem. 278:34874-81). Briefly, pre-treated Aβ40 or Aβ42 (40 μM in 20 mM Tris, pH 7.4) was diluted with an equal volume of 8 μM Thioflavin T (ThT) in Tris (20 mM, pH 7.4, 300 mM NaCl). Aliquots of Aβ/ThT (200 μL) were added to wells of a black polystyrene 96-well plate, followed by 2 μL of a compound in DMSO (variable concentration), or DMSO alone (controls). Incubations were performed in triplicate and were taken to contain 20 μM Aβ, various concentration of compound in 20 mM Tris, pH 7.4, 150 mM NaCl, 1% DMSO. Plates were covered with clear polystyrene lids and incubated at 37° C. in a Tecan Genios microplate reader.
Analysis of ThT and ThS Aggregation Assays
Fluorescence readings (λex=450 nm, λem=480 nm) were taken every 15 min., after first shaking at high intensity for 15 s and allowing to settle for 10 s before each reading. Active compounds attenuated the increase in fluorescence over time that occurred in controls. In FIGS. 1-7, the time this procedure was performed extended to 80 hours (rightmost part of X-axis), at which point fluorescence increase generally reached an asymptote. Applying a definition of DMSO control at 80 hr as 100% aggregation (0% inhibition) and DMSO control at 0 hr as 0% aggregation (100% inhibition), a % inhibition score where higher is better can be calculated for a given concentration of compound. By repeating this procedure over several concentrations, a […] (IC50) can be measured, as is given in the table below for some compounds.

Experiment [1] addresses Terminally biotinylated beta-amyloid (Aβ42) (Homo sapiens, UniProt P05067). Description: Aβ42 biotinylated (biotin-AB) oligomerization assay, NeutrAvidin capture ELISA. The settings on record: approximate value; 1 hr oligomerization at room temperature; read-out: IC50 Aβ 42-bio. It is filed as biochemical. On the procedure: Aβ42 Biotinylated Assay Terminally biotinylated beta-amyloid (biotin-AB) was dissolved in HFIP at the concentration of 1 mg/ml and aliquoted to 50 μl/tube in 0.65 ml colored microfuge tubes (Fisher 02-681-248). The aliquots were diluted immediately by adding 450 μl of HFIP to 0.1 mg/ml. Approximately 46 ul (containing approximately 4.6 ug of biotin-AB) were taken from a tube, 100 ul of HFIP added, vortexed, and dried to a thin film under an N2 stream. 100 μl of trifluoroacetic acid (TFA) was added and vortexed. After 10 minute incubation at room temperature in a hood, resulting in disaggregation of seeds, the sample was vortexed again and dried again to a thin film under an N2 stream. 100 μl of HFIP was added, mixed, and the biotin-AB sample was dried for a third time under an N2 stream to remove residual TFA. The treated biotin-AB was dissolved in DMSO to a final peptide concentration of […] (SOX). An ELISA “capture” plate (Costar 9018) was coated with 50 μl of 1 μg/ml NeutrAvidin™ (NA) in 10 mM sodium phosphate buffer, pH 7.5. (NeutrAvidin can be prepared as 1 mg/ml (1000×) in milliQ water/10% glycerol and stored at −80° C. before use.) The plate was sealed plate with adhesive film and stored at 4° C. overnight, then blocked for 2 hours (unsealed) at room temperature with 200 μl/well OFB+0.1% v/v Tween 20. The “capture” plate was allowed to come to room temperature. Several dilutions of test compound were prepared with 100% DMSO, according to the desired concentration to be tested. 2.5 μl of diluted test compound was pipetted into the bottom of each well of a 96-well “dilution” polypropylene plate (Costar 3365), to which was added 250 ul of Oligomer Formation Buffer (OFB: 20 mM sodium phosphate, pH 7.5-150 mM NaCl). To begin oligomerization, 2 μl/well of the biotin-AB was added to the bottom of each well of a 96-well “reaction” polypropylene plate (Costar 3365) and 100 ul of each well of the “dilution” plate was transferred to the “reaction” plate (final concentration of DMSO being up to 1%). The reaction plate was sealed and incubated for 1 hr at room temperature without shaking. The reaction was then stopped by the addition of 50 ul of 0.3% Tween 20 in water. The “capture” plate blocking solution was removed, and 50 ul of each well of the “reaction” plate was transferred to each well of the “capture” plate. The “capture” plate was sealed and incubated for 2 hours at room temperature with shaking at 150 rpm. The “capture” plate was then washed on a plate washer (3×) with 200 ul/well TBST (20 mM Tris-HCL, pH 7.5/150 mM NaCl/0.1% Tween 20). 50 ul of Streptavidin-horseradish […] (1:20,000 dilution) in OFB+0.1% Tween 20 was added to each well, the “capture” plate was sealed and incubated for 1 hr with shaking at 150 rpm. As before, the plate was washed, then 100 ul of TMB/H2O2 substrate solution was added to each well. After 5-10 minutes, 100 ul of 1% v/v sulfuric acid was added and the absorbance of each well was read at 450 nm using a standard plate reader. Data is summarized in the table below; numbers given in parenthesis for the Aβ 40 Thioflavin T assays are the values in that particular experiment for compound ID 1027, given as the first entry in this table for structural comparison. “IC50 Aβ42-bio” column refers to the approximate value of the Aβ42 biotinylated assay IC50 in micromoles/L.

Some results are limits rather than exact numbers.

Sequence of Aβ40 (P05067 672-711, species assumed): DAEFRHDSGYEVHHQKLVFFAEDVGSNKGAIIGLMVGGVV
Sequence of Terminally biotinylated beta-amyloid (Aβ42) (P05067 672-713, species assumed): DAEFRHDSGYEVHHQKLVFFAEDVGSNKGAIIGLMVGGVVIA

`Cc1ccc(-c2cc(N3CC(CN4CCCC4)C3)c3nonc3c2)c2ccccc12` [compound 1494]: the inhibition at 10 µM on Aβ40 was 45%. Further, the IC50 in experiment [1] came out at 2.01 µM.

On to `c1cc(N2CC(CN3CCCC3)C2)c2nonc2c1` [compound 1473], for which the inhibition at 10 µM at Aβ40 stood at 31%. Besides, the IC50 in experiment [1] was 18.1 µM.

As to `CC(C)c1ccc(-c2cc(N3CC(CN4CCCC4)C3)c3nonc3c2)cc1` [compound 1489], the inhibition at 10 µM on Aβ40 amounted to 34%. Besides, the half-inhibitory concentration (IC50) in experiment [1] was determined as 1.6 µM.

Consider `Cc1ccc(-c2cc(N3CC(CN4CCCC4)C3)c3nonc3c2)cc1Cl` [compound 1490], for which, on Aβ40, the inhibition at 10 µM came to 27%. Besides, the IC50 in experiment [1] worked out at 4.4 µM.

As for `CN(C)C(=O)c1ccccc1-c1cc(N2CC(CN3CCCC3)C2)c2nonc2c1` [compound 1542], on Aβ40, the inhibition at 5 µM stood at 15% and the inhibition at 10 µM came to 36%. The 50% inhibitory concentration (IC50) in experiment [1] was over 20 µM.

Take `c1cc(-c2cc(N3CC(CN4CCCC4)C3)c3nonc3c2)co1` [compound 1510]: the inhibition at 10 µM on Aβ40 turned out to be 65%. Also, in experiment [1], the 50% inhibitory concentration (IC50) was over 20 µM.

Consider `CN(C)C(=O)c1ccc(-c2cc(N3CC(CN4CCCC4)C3)c3nonc3c2)cc1` [compound 1516], for which the inhibition at 10 µM on Aβ40 was determined as 47%. Also, in experiment [1], the IC50 is over 20 µM.

Take `c1ccc2oc(-c3cc(N4CC(CN5CCCC5)C4)c4nonc4c3)cc2c1` [compound 1485]: the inhibition at 10 µM at Aβ40 is 26%. For the same compound, in experiment [1], the IC50 amounted to 2.63 µM.

In the case of `OC(c1cc(-c2cc(N3CCC(N4CCCC4)CC3)c3nonc3c2)cs1)C(F)(F)F` (stereo not drawn) [compound 1463], on Aβ40, the inhibition at 5 µM worked out at 37% and the inhibition at 10 µM stood at 61%.

Take `c1cncc(-c2cc(N3CC(CN4CCCC4)C3)c3nonc3c2)c1` [compound 1476]: the inhibition at 10 µM at Aβ40 amounted to 36%. For the same compound, the IC50 in experiment [1] was 12.2 µM.

Consider `O=C(c1cc(N2CC(CN3CCCC3)C2)c2nonc2c1)C(F)(F)F` [compound 1477], for which the inhibition at 10 µM on Aβ40 was found to be 30%. In experiment [1], the IC50 came out at 1.83 µM.

On to `Clc1cccc(-c2cc(N3CC(CN4CCCC4)C3)c3nonc3c2)c1` [compound 1505], for which the inhibition at 10 µM at Aβ40 was found to be 62%. The 50% inhibitory concentration (IC50) in experiment [1] is 4.62 µM.

As to `COC(c1cc(N2CC(CN3CCCC3)C2)c2nonc2c1)C(F)(F)F` (stereo not drawn) [compound 1539], at Aβ40, the inhibition at 5 µM was 53% and the inhibition at 10 µM was 55%. Further, the IC50 in experiment [1] was determined as 7.8 µM.

Regarding `OC(c1cccc(-c2cc(N3CCC3)c3nonc3c2)c1)C(F)(F)F` (stereo not drawn) [compound 1432], the “% inhib Thioflavin T Aβ 40 (3 μm)” value at Aβ40 worked out at 23%.

For the compound `OCC1CN(c2cc(-c3cccc(C(O)C(F)(F)F)c3)cc3nonc23)C1` (stereo not drawn) [compound 1428], on Aβ40, the “% inhib Thioflavin T Aβ 40 (3 μm)” value is given as 52%.

Turning to `OC(c1ccc(-c2cc(N3CC(CN4CCOCC4)C3)c3nonc3c2)cn1)C(F)(F)F` (stereo not drawn) [compound 1618, 2,2,2-trifluoro-1-(5-(7-(3-(morpholinomethyl)azetidin-1-yl)benzo[c][1,2,5]oxadiazol-5-yl)pyridin-2-yl)ethan-1-ol], the IC50 in experiment [1] stood at 4.98 µM.

On to `NC(=O)c1cc(N2CC(CN3CCCC3)C2)c2nonc2c1` [compound 1548], for which, in experiment [1], the IC50 amounted to 25.3 µM.

For the compound `Cn1ncc(C(O)C(F)(F)F)c1-c1cc(N2CC(CN3CCOCC3)C2)c2nonc2c1` (stereo not drawn) [compound 1651], the IC50 in experiment [1] is 30.1 µM.

For the compound `CC(C)(O)c1cccc(-c2cc(N3CC(CN4CCOCC4)C3)c3nonc3c2)c1` [compound 1617], the concentration for half-maximal inhibition (IC50) in experiment [1] came out at 14.6 µM.

As for `OC1(c2ccccc2-c2cc(N3CC(CN4CCOCC4)C3)c3nonc3c2)COC1` [compound 1663], the IC50 in experiment [1] was over 20 µM.

`COCCN1CCCCC1c1cc(N2CC(CN3CCCC3)C2)c2nonc2c1` (stereo not drawn) [compound 1556]: in experiment [1], the half-maximal inhibitory concentration (IC50) was found to be 6.6 µM.

`O=C(c1ccccc1)N1CCN(c2ccc([N+](=O)[O-])c(Nc3ccccc3)c2)CC1` [compound 1027, reference compound]: on Aβ40, the “% inhib Thioflavin T Aβ 40 (3 μm)” value stood at 26%.

As for `c1csc(-c2cc(N3CC(CN4CCCC4)C3)c3nonc3c2)n1` [compound 1560], the IC50 in experiment [1] came out at 6.7 µM.

For the compound `N#Cc1ccccc1-c1cc(N2CC(CN3CCOCC3)C2)c2nonc2c1` [compound 1586, 2-(7-(3-(morpholinomethyl)azetidin-1-yl)benzo[c][1,2,5]oxadiazol-5-yl)benzonitrile], the IC50 in experiment [1] stood at 41.9 µM.

As for `OCc1cccc(-c2cc(N3CC(CN4CCOCC4)C3)c3nonc3c2)c1` [compound 1598], the IC50 in experiment [1] was found to be 9.9 µM.

Consider `COc1ccc(-c2cc(N3CC(CN4CCOCC4)C3)c3nonc3c2)cn1` [compound 1670, 6-(6-methoxypyridin-3-yl)-4-(3-(morpholinomethyl)azetidin-1-yl) benzo[c][1,2,5]oxadiazole], for which the half-inhibitory concentration (IC50) in experiment [1] came to 11.2 µM.

For the compound `CC(C)(O)/C=C/c1cc(N2CC(CN3CCOCC3)C2)c2nonc2c1` [compound 1645, (E)-2-methyl-4-(7-(3-(morpholinomethyl)azetidin-1-yl)benzo[c][1,2,5]oxadiazol-5-yl)but-3-en-2-ol], the IC50 in experiment [1] is over 20 µM.

Consider `OC(c1ncoc1-c1cc(N2CC(CN3CCOCC3)C2)c2nonc2c1)C(F)(F)F` (stereo not drawn) [compound 1667], for which, in experiment [1], the concentration for half-maximal inhibition (IC50) came to 17.5 µM.

For the compound `COc1cc(-c2cc(N3CC(CN4CCOCC4)C3)c3nonc3c2)ccc1C1CC1` [compound 1660, 6-(4-cyclopropyl-3-methoxyphenyl)-4-(3-(morpholinomethyl)azetidin-1-yl) benzo[c][1,2,5]oxadiazole], the IC50 in experiment [1] stood at 3.9 µM.

For `FC(F)(F)c1nc(-c2cc(N3CC(CN4CCOCC4)C3)c3nonc3c2)no1` [compound 1643, 4-(3-(morpholinomethyl)azetidin-1-yl)-6-(5-(trifluoromethyl)-1,2,4-oxadiazol-3-yl)benzo[c][1,2,5]oxadiazole], the concentration for half-maximal inhibition (IC50) in experiment [1] was found to be 14.2 µM.

The values are drawn from US9938249B2, “Anti-amyloid compounds containing benzofurazan” (Treventis Corporation, priority 2014, dated 2018).
